{"source": "patent US20120135002A1", "about": "“Compounds and Methods for the Treatment of Cancer” (priority 2009, published 2012)", "key": {"[1]": {"tested_on": "AML cells lines", "assay": "CD14 and CD11b monocytic marker expression in AML cell lines", "format": "cell-based", "experimental": "Peripheral blood cells from AML patients and healthy donors was analyzed after obtaining their written informed consent (please refer to supplementary table 2 for additional information). Peripheral blood was collected at the initial diagnosis previously to treatment administration. Mononuclear cells were separated by Ficoll-hypaque (PAA laboratories) density centrifugation and resuspended in IMDM medium (Invitrogen) supplemented with 15% fetal calf serum (FCS) (Hyclone), 100 ng/ml Stem Cell Factor (SCF), 10 ng/ml Interleukin 3 (IL-3) and 25 ng/ml FLT3-L (all purchased from R&D Systems). HL60 and U937 cell lines were a kind gift from J. M. Cayuela (Saint-Louis Hospital, Paris). Cells were cultured in RPMI-1640 medium (Invitrogen) supplemented with 5% FCS and antibiotics.\nThe ability of iron deprivation to override blockade of AML cells differentiation was tested. In AML cells lines, monocytic markers CD14 and CD11b (which are induced by the vitamin D3 (VD), a monocytic differentiating agent) were induced by iron deprivation by A24 mAb, DFO and DFX. Induction of cell surface markers was accompanied by characteristic cytological modifications of monocytes. Iron deprivation induced cytoplasm enlargement, loss of cytoplasm basophilia and azurophilic granules. […]"}, "[2]": {"tested_on": "HL60", "assay": "Transcriptome (microarray) analysis of treated HL60 cells", "format": "cell-based, human", "details": "for number of genes modulated by the three different agents: HL60 cell line, genes affected by DFO, DFX and mAb A24 together"}, "[3]": {"tested_on": "c-Jun, c-Fos", "assay": "c-Jun and c-Fos expression in HL60 cells", "format": "cell-based", "details": "VD 250 nM, A24 10 μg/ml, DFO 5 μM, DFX 3 μM", "experimental": "FIG. 4 depicts the change in c-Jun expression following treatment of HL60 cells with vitamin D3 (VD, 250 nM), A24 (A24, 10 μg/ml), deferoxamine (DFO, 5 μM) or deferasirox (DFX, 3 μM).\nFIG. 5 depicts the c-Fos and c-Jun mRNA levels (evaluated by quantitative RT-PCR and normalized to GAPDH mRNA levels) in HL60 cells treated for 48 h with A24 (A24, 10 μg/ml); deferoxamine (DFO, 5 μM); or deferasirox (DFX, 3 μM) (mean±SEM, n=4).\nTotal RNA was extracted using Nucleospin RNA II (Macherey-Nagel). Following DNAse treatment, first-strand cDNA was synthesized using a SuperScript II reverse transcriptase (Invitrogen). Quantitative real-time PCR was performed with a Chromo-IV PCR System (MJ Research) and PCR products were quantified using SybrGreen Technology (Jumpstart mastermix, Sigma Aldrich). Results of real-time quantitative PCR were interpreted using the delta-delta Ct method (Livak et al. (2001) Methods 25:402-408). The complete list of primer sequences used is available in supplementary data section, table 4.\nBy comparing (with a non-supervised analysis) the pattern of genes induced by VD and iron-chelating agents, a high similarity was found among modulated genes. Thirty of the 105 genes modulated by iron deprivation were shared with VD modified genes. This finding underscores the potential similarities between both differentiation approaches. […]"}, "[4]": {"tested_on": "squamous cell carcinoma and prostatic adenocarcinoma", "details": "in vitro; cited from earlier work"}}}
{"smiles": "O=C(O)c1ccc(-n2nc(-c3ccccc3O)nc2-c2ccccc2O)cc1", "note": "[DFX, 4-[3,5-bis(2-hydroxyphenyl)-[1,2,4]triazol-1-yl]benzoic acid]", "values": [{"measurement": "monocytic markers CD14 and CD11b", "setting": "[1]", "value": "induced"}, {"measurement": "number of genes modulated by the three different agents", "setting": "[2]", "value": 105}]}
{"smiles": "CC(=O)N(O)CCCCCNC(=O)CCC(=O)N(O)CCCCCNC(=O)CCC(=O)N(O)CCCCCN", "note": "[DFO]", "values": [{"measurement": "number of genes modulated by the three different agents", "setting": "[2]", "value": 105}]}
{"smiles": "C=C1CC[C@H](O)C/C1=C/C=C1\\CCC[C@]2(C)[C@@H]([C@H](C)CCCC(C)C)CC[C@@H]12", "note": "[VD, cholecalciferol]", "values": [{"measurement": "c-Jun gene expression", "setting": "[3]", "value": "induced"}, {"measurement": "monocytic markers CD14 and CD11b", "setting": "[1]", "value": "induced"}, {"measurement": "markers of granulocyte differentiation / neutrophils (ELA2, PRTN3, CLC, AZU)", "setting": "[2]; HL60, gene expression", "value": "down-regulated"}, {"measurement": "markers of monocytes or activated macrophages (SERPINB8, ITGB2, TREML2, ITGAM)", "setting": "[2]; HL60, gene expression", "value": "up-regulated"}, {"measurement": "similarity of genes targeted by iron deprivation with VD", "setting": "[2]; genome screening", "value": 30, "unit": "%"}, {"measurement": "genes of the 105 modulated by iron deprivation shared with VD modified genes", "setting": "[2]; non-supervised analysis", "value": "Thirty"}]}
{"smiles": "C=C1/C(=C\\C=C2/CCC[C@]3(C)[C@@H]([C@H](C)CCCC(C)(C)O)CC[C@@H]23)C[C@@H](O)C[C@@H]1O", "note": "[calcitriol, 1α,25-dihydroxycholecalciferol D3]", "values": [{"measurement": "antiproliferative activity", "setting": "[4]", "value": "exhibits antiproliferative activity"}]}
